Assay results published in patent publication US5780472A, “Piperazine derivatives and methods for the preparation thereof and compositions containing the same” (Samjin Pharmaceuticazl Co., Ltd., priority 1995, dated 1998).
≈ marks a conversion by molar mass, not a printed value.

Assays:
[1] = test system: P388 (mouse lymphoid neoplasma cell); experiment: In vitro antitumor effects against animal leukemia cells (dye exclusion assay), P388; format: cell-based; details: Mus musculus, P388, 48 h, 50% cell growth inhibition, 37° C., trypan blue, read-out: ED50 (the source's name)
Description: P388 (mouse lymphoid neoplasma cell)
(§1) B. Method of Experiment(Dye Exclusion Assay)
(§2) 2) Sample drugs diluted with log dose were added into the cells, and it were cultured at 37° C., for 48 hours, in […] incubater, and then viable cell number was measured, Viable cell number was measured with dye exclusion test using trypan blue.

[2] = test system: 5 kinds of human solid cancer cell lines; experiment: In vitro antitumor activity against 5 human solid cancer cell lines compared with cisplatin (SRB assay); format: cell-based; details: in words
Description: Antitumor activities of the compounds of present invention were tested. Antitumor activities of compounds of the present invention were tested in vitro against 5 kinds of human tumor cell lines and 2 kinds of leukemia tumor cell lines. The method of in vitro test is as follows.
B. Method of test(SRB Assay Method)
a. Human solid tumor cell lines, […](non-small lung cell), SKMEL-2(melanoma), HCT-15(colon), SKOV-3(ovarian), XF-498(CNS) were cultured at 37° C., in 5% CO2 incubater using the RPMI 1640 media containing 10% FBS, while they were transfer-cultured successively once or twice per week. Cell cultures were dissolved into the solution of 0.25% trypsin and 3 mM CDTA PBS(-) and then cells were separated from media which the cells were sticked on.
b. 5×10^3 -2×10^4 cells were added into each well of 96-well plate and cultured in 5% CO2 incubater, at 37° C., for 24 hours.
c. Each sample drugs was dissolved in a small quantity of DMSO, and diluted to concentrations prescribed in experiment with media, and then the final concentration of DMSO was controlled below 0.5%.
d. A medium of each well cultured for 24 hours as above b., was removed by aspiration. 200 μl of drug samples prepared in c. was added into each well and the wells were cultured for 48 hours. Tz(time zero) plates were collected at the point of time drugs were added.
e. After Tz plates and plates were treated with cell fixing by TCA of SRB assay method, staining of 0.4% SRB solution, washing with 1% acetic acid, OD values were measured at 520 nm, following elution of dye with 10 mM Tris solution.
e. If T≥Tz, cellular response function was calculated with 100×(T-Tz)/(C-Tz), and if T<Tz, with 100×(T-Tz)/Tz.

[3] = test system: L1210 and P388 mouse cancer cells; experiment: In vitro antitumor activity against L1210 and P388 compared with mitomycin C (dye exclusion assay); format: cell-based; details: in words
Description: as §1
1) L-1210 and P388 cells that were cultured in RPMI 1640 media containing 10% FBS were regulated as the cell concentration of 1×10^6 cells/ml.
as §2
3) The concentration of sample compounds of 50% cell growth inhibition compared with standard group was determined as IC50.

[4] = test system: L1210 (mouse leukemia cell); experiment: In vitro antitumor effects against animal leukemia cells (dye exclusion assay), L1210; format: cell-based; details: Mus musculus, L1210, 48 h, 50% cell growth inhibition, 37° C., trypan blue, read-out: ED50 (the source's name)
Description: L1210(mouse leukemia cell)
as §1, §2

ICR mice = experiment: Acute toxicity test (LD50), Litchfield-Wilcoxon method; format: in vivo, mouse; design: unit not given here; details: male ICR mice, 14 days

IC50 [1] | IC50 [4] | SMILES | antitumor activities compared with cisplatin [2] | antitumor activities compared with mitomycin C [3] | LD50 (ICR mice; i.p.) | LD50 (ICR mice; p.o.)
1 µg/mL (≈ 2.7 µM) | 1.4 µg/mL (≈ 3.78 µM) | CCc1cc(NC(=O)N2CCN(c3cccc(O)c3)CC2)c(OC)nc1C [Example 38, 1-[(5-ethyl-2-methoxy-6-methylpyridin-3-yl)aminocarbonyl]-4-(3-hydroxyphenyl)piperazine] | superior antitumor activities to those of cisplatin | same or more excellent antitumor activities | – | –
0.3 µg/mL (≈ 0.753 µM) | 0.3 µg/mL (≈ 0.753 µM) | CCc1cc(NC(=O)N2CCN(c3cc(C)ccc3OC)CC2)c(OC)nc1C [Example 47, 1-[(5-ethyl-2-methoxy-6-methylpyridin-3-yl)aminocarbonyl]-4-(2-methoxy-5-methylphenyl)piperazine] | superior antitumor activities to those of cisplatin | same or more excellent antitumor activities | – | –
– | – | COc1nc(C)c(C)cc1NC(=S)N1CCN(c2cccc(Cl)c2)CC1 [Example 126, 1-[(5,6-dimethyl-2-methoxypyridin-3-yl)aminothiocarbonyl]-4-(3-chlorophenyl) piperazine] | superior antitumor activities to those of cisplatin | – | – | –
– | – | COc1nc(C)c(C)cc1NC(=O)N1CCN(c2cccc(Cl)c2)CC1 [Example 109, 1-[(5,6-dimethyl-2-methoxypyridin-3-yl)aminocarbonyl]-4-(3-chlorophenyl)piperazine] | superior antitumor activities to those of cisplatin | – | 2,000 | > 2,073
1.5 µg/mL (≈ 3.58 µM) | 2 µg/mL (≈ 4.77 µM) | CCc1cc(NC(=O)N2CCN(c3cc(OC)ccc3Cl)CC2)c(OC)nc1C [Example 50, 1-[(5-ethyl-2-methoxy-6-methylpyridin-3-yl)aminocarbonyl]-4-(2-chloro-5-methoxyphenyl)piperazine] | superior antitumor activities to those of cisplatin | – | – | –
– | – | COc1cc(OC)cc(N2CCN(C(=S)Nc3cc(C)c(C)nc3OC)CC2)c1 [Example 129, 1-[(5,6-dimethyl-2-methoxypyridin-3-yl)aminothiocarbonyl]-4-(3,5-dimethoxyphenyl)piperazine] | superior antitumor activities to those of cisplatin | – | – | –
0.1 µg/mL (≈ 0.271 µM) | 0.3 µg/mL (≈ 0.814 µM) | COc1nc(C)c(C)cc1NC(=O)N1CCN(c2cc(C)cc(C)c2)CC1 [Example 120, 1-[(5,6-dimethyl-2-methoxypyridin-3-yl)aminocarbonyl]-4-(3,5-xylyl)piperazine] | superior antitumor activities to those of cisplatin | same or more excellent antitumor activities | – | –
– | – | COc1nc(C)c(C)cc1NC(=O)N1CCN(c2cccc(O)c2)CC1 [Example 113] | superior antitumor activities to those of cisplatin | – | – | –
– | – | CCc1cc(NC(=O)N2CCN(c3cccc(O)c3C)CC2)c(OC)nc1C [Example 55, 1-[(5-ethyl-2-methoxy-6-methylpyridin-3-yl)aminocarbonyl]-4-(3-hydroxy-2-methylphenyl)piperazine] | superior antitumor activities to those of cisplatin | – | – | –
0.2 µg/mL (≈ 0.517 µM) | 0.5 µg/mL (≈ 1.29 µM) | COc1ccccc1N1CCN(C(=S)Nc2cc(C)c(C)nc2OC)CC1 [Example 128] | superior antitumor activities to those of cisplatin | same or more excellent antitumor activities | – | –
– | – | COc1ccc(C)c(N2CCN(C(=O)Nc3cc(C)c(C)nc3OC)CC2)c1 [Example 121] | superior antitumor activities to those of cisplatin | – | – | –
1.6 µg/mL (≈ 4.1 µM) | 1.7 µg/mL (≈ 4.35 µM) | CCc1cc(NC(=O)N2CCN(c3cc(F)cc(F)c3)CC2)c(OC)nc1C [Example 13, 1-[(5-ethyl-2-methoxy-6-methylpyridine-3-yl)aminocarbonyl]-4-(3,5-difluorophenyl)piperazine] | superior antitumor activities to those of cisplatin | same or more excellent antitumor activities | – | –
– | – | COc1nc(C)c(C)cc1NC(=O)N1CCN(c2cc(F)cc(F)c2)CC1 [Example 111, 1-[(5,6-dimethyl-2-methoxypyridin-3-yl)aminocarbonyl]-4-(3,5-difluorophenyl)piperazine] | superior antitumor activities to those of cisplatin | – | – | –
– | – | COc1nc(C)c(C)cc1NC(=O)N1CCN(c2cccc(OC(C)=O)c2)CC1 [Example 115, 1-[(5,6-dimethyl-2-methoxypyridin-3-yl)aminocarbonyl]-4-(3-acetoxyphenyl)piperazine] | superior antitumor activities to those of cisplatin | – | – | –
– | – | C#CCNc1cccnc1N1CCN(C(=O)NCc2cc(CC)c(C)nc2OC)CC1 [Example 144, 1-[(5-ethyl-2-methoxy-6-methylpyridin-3-yl)methylaminocarbonyl]-4-[(3-propargylamino)pyridin-2-yl]piperazine] | superior antitumor activities to those of cisplatin | – | – | –
– | – | CCc1cc(NC(=O)N2CCN(c3cccc(Cl)c3)CC2)c(NC)nc1C [Example 91] | superior antitumor activities to those of cisplatin | – | – | –
– | – | CCc1cc(NC(=S)N2CCN(c3cc(OC)cc(OC)c3)CC2)c(OC)nc1C [Example 100, 1-[(5-ethyl-2-methoxy-6-methylpyridin-3-yl)aminothiocarbonyl]-4-(3,5-dimethoxyphenyl)piperazine] | superior antitumor activities to those of cisplatin | – | – | –
– | – | CCc1cc(NC(=O)N2CCN(c3cccc(C)c3C)CC2)c(OC)nc1C [Example 28, 1-[(5-ethyl-2-methoxy-6-methylpyridin-3-yl)aminocarbonyl]-4-(2,3-dimethylphenyl)piperazine] | superior antitumor activities to those of cisplatin | – | > 1,800 | > 2,000
2 µg/mL (≈ 5.43 µM) | 2.2 µg/mL (≈ 5.97 µM) | COc1nc(C)c(C)cc1NC(=O)N1CCN(c2cccc(C)c2C)CC1 [Example 119, 1-[(5,6-dimethyl-2-methoxypyridin-3-yl)aminocarbonyl]-4-(2,3-xylyl)piperazine] | superior antitumor activities to those of cisplatin | – | – | –
– | – | CCc1cc(CNC(=O)N2CCN(c3ccccc3F)CC2)c(OC)nc1C [Example 61] | superior antitumor activities to those of cisplatin | – | > 1,687 | –

SMILES | IC50 [1] | IC50 [4] | antitumor activities compared with cisplatin [2] | antitumor activities compared with mitomycin C [3] | LD50 (ICR mice; i.p.) | LD50 (ICR mice; p.o.)
CCc1cc(NC(=S)N2CCN(c3ccccc3OC)CC2)c(OC)nc1C [Example 97, 1-[(5-ethyl-2-methoxy-6-methylpyridin-3-yl)aminothiocarbonyl]-4-(2-methoxyphenyl)piperazine] | 1.6 µg/mL (≈ 3.99 µM) | 2 µg/mL (≈ 4.99 µM) | superior antitumor activities to those of cisplatin | – | 1,100 | –
CCc1cc(NC(=S)N2CCN(c3cccc(Cl)c3)CC2)c(OC)nc1C [Example 98, 1-[(5-ethyl-2-methoxy-6-methylpyridin-3-yl)aminothiocarbonyl]-4-(3-chlorophenyl)piperazine] | 2.1 µg/mL (≈ 5.19 µM) | 2 µg/mL (≈ 4.94 µM) | superior antitumor activities to those of cisplatin | – | > 1,800 | > 2,000
